Measured values from patent US10184115B2, “Mutated cellobiose dehydrogenase with increased substrate specificity” (DIRECTSENS GMBH, priority 2012, dated 2019).

Target: T1, Corynascus thermophilus cellobiose dehydrogenase (CDH), recombinant wild type, SEQ ID NO: 7 (Thermothelomyces fergusii, UniProt E7D6B9)
T1 sequence (E7D6B9 24-787): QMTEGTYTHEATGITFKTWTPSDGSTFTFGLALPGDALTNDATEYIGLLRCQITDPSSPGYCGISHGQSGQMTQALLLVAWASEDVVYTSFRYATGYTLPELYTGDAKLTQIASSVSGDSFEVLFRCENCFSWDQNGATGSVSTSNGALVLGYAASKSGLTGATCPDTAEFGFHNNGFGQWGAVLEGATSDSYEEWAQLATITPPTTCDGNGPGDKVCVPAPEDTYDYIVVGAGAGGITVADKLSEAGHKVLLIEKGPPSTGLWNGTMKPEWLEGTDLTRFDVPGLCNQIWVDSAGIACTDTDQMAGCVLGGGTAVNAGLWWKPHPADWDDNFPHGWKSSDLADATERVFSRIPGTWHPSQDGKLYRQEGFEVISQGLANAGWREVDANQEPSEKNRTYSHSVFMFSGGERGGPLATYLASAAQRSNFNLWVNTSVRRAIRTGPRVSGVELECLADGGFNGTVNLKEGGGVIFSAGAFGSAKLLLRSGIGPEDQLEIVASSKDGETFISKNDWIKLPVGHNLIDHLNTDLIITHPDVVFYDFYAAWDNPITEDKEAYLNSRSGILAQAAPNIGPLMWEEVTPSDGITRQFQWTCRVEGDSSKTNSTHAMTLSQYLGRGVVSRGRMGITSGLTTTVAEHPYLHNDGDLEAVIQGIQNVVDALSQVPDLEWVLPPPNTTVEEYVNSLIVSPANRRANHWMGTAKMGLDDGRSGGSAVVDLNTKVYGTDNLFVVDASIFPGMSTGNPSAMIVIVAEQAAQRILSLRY
Assay: Steady-state kinetics, DCIP assay: C. thermophilus CDH wt
Settings: apparent, pH 5.5, 30° C.
Protocol: Enzyme activity was assayed at 30° C. using either the DCIP (Karapetyan et al., 2005 Journal of Biotechnology 121: 34-48) or cytochrome c (Canevascini et al., 1991, European Journal of Biochemistry 198: 43-52) as electron acceptor. […] Stock solutions of carbohydrates used for kinetic measurements were prepared in the respective buffer and allowed to stand overnight for mutarotation, while stock solutions of electron acceptors were prepared in water and immediately used. The reaction stoichiometry is 1 for the two-electron acceptor DCIP (1 mole of DCIP reduced per mole of carbohydrate oxidized), but 2 for the one-electron acceptor cytochrome c. Kinetic constants were calculated by fitting the observed data to the Henri-Michaelis-Menten equation or to the adapted model for substrate inhibition using nonlinear least-squares regression and the program SigmaPlot (Systat Software, San Jose, Calif., USA). […]
Recombinant wild-type CDH as well as variants were produced in 1 L baffled flasks. […] Increase in activity was monitored using the DCIP and the cytochrome c enzyme assays. […]
The sample was loaded on a 20 mL PHE Sepharose FF column (HR26/20) equilibrated with 50 mM Na-acetate buffer pH 5.5 containing 20% ammonium sulfate. […] Fractions were tested for CDH activity and pooled according to the highest Reinheitszahl (RZ, calculated from the absorbance ratio 420 nm/280 nm). […]

Compound: OC[C@H]1OC(O)[C@H](O)[C@@H](O)[C@@H]1O (some centres unmarked) [Glucose, glucose]
- kcat: 4.09 s⁻¹
- kcat/KM: 170 M⁻¹ s⁻¹
